Measured values taken from patent US20080248568A1, “Directed Neural Differentiation” (The University Court of the University of Edinburgh, priority 2005, published 2008).

Tests used:
NotchIC cells = assay: Monolayer differentiation of NotchIC ES cells, sox1-GFP by FACS; format: cell-based, mouse; conditions: 4 μM inhibitor, sox1-GFP positive cells by FACS
Excerpt: Intact cultures were stained for Oct4 on day 5 to visualise undifferentiated ES cells.
(§1) This is as described in detail in Ying et al., 2003b. Briefly, ES cells were washed to remove all traces of serum and then plated on gelatin-coated tissue culture plastic at a density of 1>10^4 cells/cm^2 in N2B27 serum-free medium. N2B27 consists of a 1:1 ratio of DM/F12 and Neurobasal media supplemental with 0.5% N2 (made in house as described in (Ying et al., 2003b)), 0.5% B27 (Gibco) and 2-mercaptoethanol. Media was changed every second day.
(§2) In some experiments, the culture medium was supplemented with 100 units/ml LIF and with 10% FCS. The MAPK inhibitor PD184352 (gift of P. Cohen, Univ Dundee) was used at a concentration of 4 μM. The gamma secretase inhibitor (Calbiochem cat. 565771) was used at a concentration of 4 μM.

ES cells = assay: Toxic effects of inhibitors in ES cell monolayer differentiation cultures; format: cell-based, mouse; conditions: 4 μM
Excerpt: as §1, §2

Compound	induction of sox1 in NotchIC cells (NotchIC cells)	toxic effects over the time course of the experiments (ES cells)
O=C(NOCC1CC1)c1ccc(F)c(F)c1Nc1ccc(I)cc1Cl [PD184352]	able to block induction of sox1	Neither of these inhibitors had any obvious toxic effects
Cc1c[nH]c(/C=C2\C(=O)Nc3ccccc32)c1CCC(=O)O [SU5402]	able to block induction of sox1	–
